Data on nine molecules can be found in patent publication EP0118867A2, “Substituted 4,10-dihydro-10-oxothieno benzoxepins, a method of preparing the same and intermediate thereof and their use as medicaments” (HOECHST-ROUSSEL PHARMACEUTICALS INCORPORATED, priority 1983, dated 1984).

Molecules are shown by their SMILES. Where two headings read alike, the source gives them in different places.

Test [1] has as its system carrageenin induced rat paw edema. Nature of the test: carrageenin induced rat paw edema anti-inflammatory assay. Type of test: in vivo. The following applies: for inhibition at 20 mg/kg: read-out: Time Response at 20 mg/kg % Inhibition; for ED50: po; for inhibition at 25 mg/kg: read-out: Time Response at 25 mg/kg % Inhibition. The source says:
The compounds of the present invention are useful as anti-inflammatory agents due to their ability to suppress inflammation in mammals. […] Exptl. Biol. Med., III 544 (1962), J. Pharmacol. Exp. 141 […]] .

In test [2] the test system is 2-phenyl-1,4-benzoquinone-induced writhing. Nature of the test: 2-phenyl-1,4-benzoquinone-induced writhing test (analgesia). It is filed as in vivo, mice. As to conditions: Mus musculus, po. The source says: Compounds of the present invention are also useful as analgesic agents due to their ability to alleviate pain in mammals. […] Exptl. Biol. Med., 95, 729 (1957)].

[3] abbreviates: pretreatment 6 hrs, read-out: ED50.
Where [4] appears, read: analgesic data, read-out: ED50 (p.o.).

In general, ED50 refers to the midpoint of the dose-response relation. `CC1(C)OCC(COC(=O)CCCc2ccc3c(c2)C(=O)c2sccc2CO3)O1` (racemic) [(±)[2,2-Dimethyl-1,3-dioxolan-4-yl]methyl 4-[4,10-dihydro-10-oxothieno[3,2-c][1]benzoxepin-8-yl]butyrate]: the inhibition at 20 mg/kg is 20% in test [1] (pretreatment time 2 hrs.), 61% in test [1] (pretreatment time 6 hrs), 32% in test [1] (pretreatment time 18 hrs) and 41% in test [1] (pretreatment time 24 hrs). For the same molecule, the results for the ED50 in test [1] (setting [3]) and in test [2] (setting [4]) were 14.5 mg/kg and 11.2 mg/kg, respectively.

As to `COC(=O)CCCc1ccc2c(c1)C(=O)c1sccc1CO2` [4-(4,10-Dihydro-10-oxothieno[3,2-c][1]benzoxepin-8-yl)-butyric acid methyl ester], the inhibition at 20 mg/kg was determined as 24% in test [1] (pretreatment time 2 hrs.), 54% in test [1] (pretreatment time 6 hrs), 62% in test [1] (pretreatment time 8 hrs) and 16% in test [1] (pretreatment time 24 hrs). Moreover, the values for the 50% effective dose (ED50) in test [1] (setting [3]) and in test [2] (setting [4]) were 10.3 mg/kg and 10.8 mg/kg, respectively.

As for `O=C(CCCc1ccc2c(c1)C(=O)c1sccc1CO2)OCC(O)CO` (racemic) [1-[(4,10-Dihydro-10-oxothieno[3,2-c][1]-benzoxepin-8-yl)-4-butyryl] glyceride], the 50% effective dose (ED50) in test [2] (setting [4]) turned out to be 9.4 mg/kg.

Regarding `O=C(O)CCCc1ccc2c(c1)C(=O)c1sccc1CO2` [4-(4,10-dihydro-10-oxothieno[3,2-c][1]benzoxepin-8-yl)-butyric acid], the inhibition at 25 mg/kg in test [1] (pretreatment time 0.5 hr.) was 49%; in test [1] (pretreatment time 1 hr), 52%; in test [1] (pretreatment time 2 hrs.), 79%; in test [1] (pretreatment time 3 hrs), 94%; in test [1] (pretreatment time 4 hrs), 95%; in test [1] (pretreatment time 6 hrs) it was 67%. Also, the inhibition at 25 mg/kg in test [1] (pretreatment time 8 hrs) was determined as 47%. Further, in test [1] (1 h, p.o., pretreatment 60 min, read-out: ED50), the median effective dose (ED50) came to 77.9 mg/kg.

As for `CCOC(=O)CCCc1ccc2c(c1)C(=O)c1sccc1CO2` [Ethyl 4-[4,10-dihydro-10-oxothieno[3,2-c][1]benzoxepin-8-yl]butyrate], the inhibition at 20 mg/kg is 40% in test [1] (pretreatment time 2 hrs.), 48% in test [1] (pretreatment time 6 hrs), 15% in test [1] (pretreatment time 18 hrs) and 22% in test [1] (pretreatment time 24 hrs). In test [2] (setting [4]), the ED50 came to 8.2 mg/kg.

For the molecule `CC(C)(C)OC(=O)CCCc1ccc2c(c1)C(=O)c1sccc1CO2` [t-Butyl 4-[4,10-dihydro-10-oxothieno-[3,2-c][1]benzoxepin-8-yl]butyrate], the inhibition at 20 mg/kg in test [1] (pretreatment time 1 hr.) was 42%; in test [1] (pretreatment time 2 hrs.) it was 49%; in test [1] (pretreatment time 4 hrs), 43%.

Regarding `CC(C)OC(=O)CCCc1ccc2c(c1)C(=O)c1sccc1CO2` [4-(4,10-Dihydro-10-oxothieno[3,2-c][1]benzoxepin-8-yl)-butyric acid isopropyl ester], the inhibition at 20 mg/kg in test [1] (pretreatment time 2 hrs.) was determined as 31%; in test [1] (pretreatment time 6 hrs), 71%; in test [1] (pretreatment time 18 hrs) it was 57%; in test [1] (pretreatment time 24 hrs), 26%. For the same molecule, the ED50 in test [1] (pretreatment 2 hrs, estimated, read-out: Estimated ED50) was 21.8 mg/kg; in test [2] (setting [4]) it was 8.5 mg/kg.

As for `CC(CCC(=O)O)c1ccc2c(c1)C(=O)c1sccc1CO2` (racemic) [(±)-4-(4,10-Dihydro-10-oxothieno[3,2-c][1]benzoxepin-8-yl)pentanoic acid], the results for the inhibition at 20 mg/kg in test [1] (pretreatment time 1 hr.), in test [1] (pretreatment time 2 hrs.) and in test [1] (pretreatment time 4 hrs) were 25%, 23% and 28%, respectively.

`CC1=C(CC(=O)O)c2cc(F)ccc2/C1=C\c1ccc([S+](C)[O-])cc1` (stereo not shown) [sulindac, reference compound]: the median effective dose (ED50) turned out to be 10.7 mg/kg in test [1] (in a similar test, read-out: anti-inflammatory ED50) and 6.2 mg/kg in test [2] (in a similar test, read-out: analgesic ED50).
